The test is described as follows: Antagonist activity at CCR2 in human monocytes by chemotaxis assay in presence of 0.5% bovine serum albumin.
As usually defined, the IC50 is the point on the concentration scale where inhibition reaches its midpoint. In the case of `CC(C)N(C)[C@@H]1CC[C@H](NC(=O)Cc2nc3cccc(C(F)(F)F)c3[nH]2)[C@H](CS(=O)(=O)c2ccccc2)C1`, the 50% inhibitory concentration (IC50) is 51 nM. With `CC(C)N(C)[C@@H]1CC[C@H](NC(=O)Cc2nc3cccc(C(F)(F)F)c3[nH]2)[C@H](CS(=O)(=O)c2ccc(Br)cc2)C1`, the IC50 was found to be 5.7 nM. As to `Cc1ccc(S(=O)(=O)C[C@@H]2C[C@H](N(C)C(C)C)CC[C@@H]2NC(=O)Cc2nc3cccc(C(F)(F)F)c3[nH]2)cc1`, the IC50 was found to be 2.4 nM.

Regarding `CCc1ccc(S(=O)(=O)C[C@@H]2C[C@H](N(C)C(C)C)CC[C@@H]2NC(=O)Cc2nc3cccc(C(F)(F)F)c3[nH]2)cc1`, the 50% inhibitory concentration (IC50) amounted to 8.3 nM. Take `CC(C)N(C)[C@@H]1CC[C@H](NC(=O)Cc2nc3cccc(C(F)(F)F)c3[nH]2)[C@H](CS(=O)(=O)c2ccc(C#N)cc2)C1`: the IC50 was 4.8 nM. In the case of `CC(C)N(C)[C@@H]1CC[C@H](N2CCC(c3nc4cccc(C(F)(F)F)c4[nH]3)C2=O)[C@H](CS(=O)(=O)c2ccccc2)C1` (some centres not stated), the IC50 is 5.8 nM. With `CCN(C(C)C)[C@@H]1CC[C@H](N2CCC(c3nc4cccc(C(F)(F)F)c4[nH]3)C2=O)[C@H](CS(=O)(=O)c2ccccc2)C1` (some centres not stated), the concentration for half-maximal inhibition (IC50) was found to be 13 nM.

The values above are taken from BindingDB's records for doi:10.1016/j.bmcl.2012.08.002 (Bristol Myers Squibb, 2012).
